{
  "source": "patent US12077503B2",
  "about": "“Substituted cyclic amides and their use as herbicides” (FMC CORPORATION, priority 2015, dated 2024)",
  "test_in_all_cases": "Test C preemergence",
  "type_in_all_cases": "in vivo",
  "key": {"[1]": {"system": "Galium (catchweed bedstraw, Galium aparine)", "details": "for Plant response rating (scale of 0 to 100), Galium: 0 is no effect, 100 is complete control", "how_it_was_run": "(§1)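 Visual rating, 0–100 scale (0 = no effect, 100 = complete control) versus controls, 13–15 d after treatment. Compounds in non-phytotoxic solvent plus surfactant; applied preemergence to seeds in loam/sand soil or postemergence to 1- to 4-leaf plants (2–18 cm) in peat/vermiculite medium; greenhouse-held.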"}, "[2]": {"system": "barnyardgrass (Echinochloa crus-galli)", "details": "for Plant response rating (scale of 0 to 100), Barnyardgrass: 0 is no effect, 100 is complete control", "how_it_was_run": "as §1"}, "[3]": {"system": "blackgrass (Alopecurus myosuroides)", "details": "for Plant response rating (scale of 0 to 100), Blackgrass: 0 is no effect, 100 is complete control", "how_it_was_run": "as §1"}, "corn (Zea mays)": {"system": "corn (Zea mays)", "details": "for Plant response rating (scale of 0 to 100), Corn: 0 is no effect, 100 is complete control", "how_it_was_run": "as §1"}, "[4]": {"system": "crabgrass, large (large crabgrass, Digitaria sanguinalis)", "details": "for Plant response rating (scale of 0 to 100), Crabgrass, Large: 0 is no effect, 100 is complete control", "how_it_was_run": "as §1"}, "[5]": {"system": "foxtail, giant (giant foxtail, Setaria faberii)", "details": "for Plant response rating (scale of 0 to 100), Foxtail, Giant: 0 is no effect, 100 is complete control", "how_it_was_run": "as §1"}, "[6]": {"system": "lambsquarters (Chenopodium album)", "details": "for Plant response rating (scale of 0 to 100), Lambsquarters: 0 is no effect, 100 is complete control", "how_it_was_run": "as §1"}, "[7]": {"system": "morningglory (Ipomoea coccinea)", "details": "for Plant response rating (scale of 0 to 100), Morningglory: 0 is no effect, 100 is complete control", "how_it_was_run": "as §1"}, "[8]": {"system": "nutsedge, yellow (yellow nutsedge, Cyperus esculentus)", "details": "for Plant response rating (scale of 0 to 100), Nutsedge, Yellow: 0 is no effect, 100 is complete control", "how_it_was_run": "as §1"}, "[9]": {"system": "oilseed rape (Brassica napus)", "details": "for Plant response rating (scale of 0 to 100), Oilseed Rape: 0 is no effect, 100 is complete control", "how_it_was_run": "as §1"}, "[10]": {"system": "pigweed (Amaranthus retroflexus)", "details": "for Plant response rating (scale of 0 to 100), Pigweed: 0 is no effect, 100 is complete control", "how_it_was_run": "as §1"}, "[11]": {"system": "ragweed (common ragweed, Ambrosia elatior)", "details": "for Plant response rating (scale of 0 to 100), Ragweed: 0 is no effect, 100 is complete control", "how_it_was_run": "as §1"}, "[12]": {"system": "ryegrass, Italian (Italian ryegrass, Lolium multiflorum)", "details": "for Plant response rating (scale of 0 to 100), Ryegrass, Italian: 0 is no effect, 100 is complete control", "how_it_was_run": "as §1"}, "soybean (Glycine max)": {"system": "soybean (Glycine max)", "details": "for Plant response rating (scale of 0 to 100), Soybean: 0 is no effect, 100 is complete control", "how_it_was_run": "as §1"}, "[13]": {"system": "velvetleaf (Abutilon theophrasti)", "details": "for Plant response rating (scale of 0 to 100), Velvetleaf: 0 is no effect, 100 is complete control", "how_it_was_run": "as §1"}, "[14]": {"system": "wheat (winter wheat, Triticum aestivum)", "details": "for Plant response rating (scale of 0 to 100), Wheat: 0 is no effect, 100 is complete control", "how_it_was_run": "as §1"}, "[15]": {"details": "62 g ai/ha, scale 0 to 100, 0 no effect, 100 complete control"}},
  "data": [
    {"smiles": "CN1CC(c2ccc(C(C)(F)F)cc2)C(C(=O)Nc2cccc(F)c2F)C1=O", "note": "(stereo not shown) [Compound 690]", "values": [
      {"measurement": "Plant response rating (scale of 0 to 100), Galium", "setting": "[1]; 8 g ai/ha", "result": 100},
      {"measurement": "Plant response rating (scale of 0 to 100), Galium", "setting": "[1]; 16 g ai/ha", "result": 90},
      {"measurement": "Plant response rating (scale of 0 to 100), Galium", "setting": "[1]; 31 g ai/ha", "result": 95},
      {"measurement": "Plant response rating, Galium", "setting": "[1]; [15]", "result": 98},
      {"measurement": "Plant response rating (scale of 0 to 100), Barnyardgrass", "setting": "[2]; 8 g ai/ha", "result": 85},
      {"measurement": "Plant response rating (scale of 0 to 100), Barnyardgrass", "setting": "[2]; 16 g ai/ha", "result": 95},
      {"measurement": "Plant response rating (scale of 0 to 100), Barnyardgrass", "setting": "[2]; 31 g ai/ha", "result": 95},
      {"measurement": "Plant response rating, Barnyardgrass", "setting": "[2]; [15]", "result": 98},
      {"measurement": "Plant response rating (scale of 0 to 100), Blackgrass", "setting": "[3]; 8 g ai/ha", "result": 0},
      {"measurement": "Plant response rating (scale of 0 to 100), Blackgrass", "setting": "[3]; 16 g ai/ha", "result": 0},
      {"measurement": "Plant response rating (scale of 0 to 100), Blackgrass", "setting": "[3]; 31 g ai/ha", "result": 50},
      {"measurement": "Plant response rating, Blackgrass", "setting": "[3]; [15]", "result": 55},
      {"measurement": "Plant response rating (scale of 0 to 100), Corn", "setting": "corn (Zea mays); 8 g ai/ha", "result": 20},
      {"measurement": "Plant response rating (scale of 0 to 100), Corn", "setting": "corn (Zea mays); 16 g ai/ha", "result": 10},
      {"measurement": "Plant response rating (scale of 0 to 100), Corn", "setting": "corn (Zea mays); 31 g ai/ha", "result": 20},
      {"measurement": "Plant response rating, Corn", "setting": "corn (Zea mays); [15]", "result": 70},
      {"measurement": "Plant response rating (scale of 0 to 100), Crabgrass, Large", "setting": "[4]; 8 g ai/ha", "result": 95},
      {"measurement": "Plant response rating (scale of 0 to 100), Crabgrass, Large", "setting": "[4]; 16 g ai/ha", "result": 98},
      {"measurement": "Plant response rating (scale of 0 to 100), Crabgrass, Large", "setting": "[4]; 31 g ai/ha", "result": 98},
      {"measurement": "Plant response rating, Crabgrass, Large", "setting": "[4]; [15]", "result": 100},
      {"measurement": "Plant response rating (scale of 0 to 100), Foxtail, Giant", "setting": "[5]; 8 g ai/ha", "result": 90},
      {"measurement": "Plant response rating (scale of 0 to 100), Foxtail, Giant", "setting": "[5]; 16 g ai/ha", "result": 95},
      {"measurement": "Plant response rating (scale of 0 to 100), Foxtail, Giant", "setting": "[5]; 31 g ai/ha", "result": 95},
      {"measurement": "Plant response rating, Foxtail, Giant", "setting": "[5]; [15]", "result": 98},
      {"measurement": "Plant response rating (scale of 0 to 100), Lambsquarters", "setting": "[6]; 8 g ai/ha", "result": 65},
      {"measurement": "Plant response rating (scale of 0 to 100), Lambsquarters", "setting": "[6]; 16 g ai/ha", "result": 65},
      {"measurement": "Plant response rating (scale of 0 to 100), Lambsquarters", "setting": "[6]; 31 g ai/ha", "result": 75},
      {"measurement": "Plant response rating, Lambsquarters", "setting": "[6]; [15]", "result": 85},
      {"measurement": "Plant response rating (scale of 0 to 100), Morningglory", "setting": "[7]; 8 g ai/ha", "result": 0},
      {"measurement": "Plant response rating (scale of 0 to 100), Morningglory", "setting": "[7]; 16 g ai/ha", "result": 0},
      {"measurement": "Plant response rating (scale of 0 to 100), Morningglory", "setting": "[7]; 31 g ai/ha", "result": 0},
      {"measurement": "Plant response rating, Morningglory", "setting": "[7]; [15]", "result": 0},
      {"measurement": "Plant response rating (scale of 0 to 100), Nutsedge, Yellow", "setting": "[8]; 8 g ai/ha", "result": 0},
      {"measurement": "Plant response rating (scale of 0 to 100), Nutsedge, Yellow", "setting": "[8]; 16 g ai/ha", "result": 0},
      {"measurement": "Plant response rating (scale of 0 to 100), Nutsedge, Yellow", "setting": "[8]; 31 g ai/ha", "result": 0},
      {"measurement": "Plant response rating, Nutsedge, Yellow", "setting": "[8]; [15]", "result": 50},
      {"measurement": "Plant response rating (scale of 0 to 100), Oilseed Rape", "setting": "[9]; 8 g ai/ha", "result": 0},
      {"measurement": "Plant response rating (scale of 0 to 100), Oilseed Rape", "setting": "[9]; 16 g ai/ha", "result": 50},
      {"measurement": "Plant response rating (scale of 0 to 100), Oilseed Rape", "setting": "[9]; 31 g ai/ha", "result": 75},
      {"measurement": "Plant response rating, Oilseed Rape", "setting": "[9]; [15]", "result": 80},
      {"measurement": "Plant response rating (scale of 0 to 100), Pigweed", "setting": "[10]; 8 g ai/ha", "result": 50},
      {"measurement": "Plant response rating (scale of 0 to 100), Pigweed", "setting": "[10]; 16 g ai/ha", "result": 60},
      {"measurement": "Plant response rating (scale of 0 to 100), Pigweed", "setting": "[10]; 31 g ai/ha", "result": 75},
      {"measurement": "Plant response rating, Pigweed", "setting": "[10]; [15]", "result": 90},
      {"measurement": "Plant response rating (scale of 0 to 100), Ragweed", "setting": "[11]; 8 g ai/ha", "result": 0},
      {"measurement": "Plant response rating (scale of 0 to 100), Ragweed", "setting": "[11]; 16 g ai/ha", "result": 10},
      {"measurement": "Plant response rating (scale of 0 to 100), Ragweed", "setting": "[11]; 31 g ai/ha", "result": 25},
      {"measurement": "Plant response rating, Ragweed", "setting": "[11]; [15]", "result": 80},
      {"measurement": "Plant response rating (scale of 0 to 100), Ryegrass, Italian", "setting": "[12]; 8 g ai/ha", "result": 0},
      {"measurement": "Plant response rating (scale of 0 to 100), Ryegrass, Italian", "setting": "[12]; 16 g ai/ha", "result": 10},
      {"measurement": "Plant response rating (scale of 0 to 100), Ryegrass, Italian", "setting": "[12]; 31 g ai/ha", "result": 40},
      {"measurement": "Plant response rating, Ryegrass, Italian", "setting": "[12]; [15]", "result": 45},
      {"measurement": "Plant response rating (scale of 0 to 100), Soybean", "setting": "soybean (Glycine max); 8 g ai/ha", "result": 0},
      {"measurement": "Plant response rating (scale of 0 to 100), Soybean", "setting": "soybean (Glycine max); 16 g ai/ha", "result": 0},
      {"measurement": "Plant response rating (scale of 0 to 100), Soybean", "setting": "soybean (Glycine max); 31 g ai/ha", "result": 0},
      {"measurement": "Plant response rating, Soybean", "setting": "soybean (Glycine max); [15]", "result": 0},
      {"measurement": "Plant response rating (scale of 0 to 100), Velvetleaf", "setting": "[13]; 8 g ai/ha", "result": 0},
      {"measurement": "Plant response rating (scale of 0 to 100), Velvetleaf", "setting": "[13]; 16 g ai/ha", "result": 0},
      {"measurement": "Plant response rating (scale of 0 to 100), Velvetleaf", "setting": "[13]; 31 g ai/ha", "result": 20},
      {"measurement": "Plant response rating, Velvetleaf", "setting": "[13]; [15]", "result": 50},
      {"measurement": "Plant response rating (scale of 0 to 100), Wheat", "setting": "[14]; 8 g ai/ha", "result": 0},
      {"measurement": "Plant response rating (scale of 0 to 100), Wheat", "setting": "[14]; 16 g ai/ha", "result": 5},
      {"measurement": "Plant response rating (scale of 0 to 100), Wheat", "setting": "[14]; 31 g ai/ha", "result": 40},
      {"measurement": "Plant response rating, Wheat", "setting": "[14]; [15]", "result": 45}
    ]}
  ]
}
